Tests used:
[1] = tested on: skin samples derived from mouse dorsal body hair skin (C57BL/6N) grafted onto Balb/c nu/nu mice; experiment: Hair growth activity: hair shaft length follow-up at transplanted skin samples after topical application; type: in vivo
Method: C57BL/6N mice (male) and Balb/c nu/nu mice (female) were purchased from Japan SLC, Inc.(Japan) and bred, and were thereafter made available for the following testing. Note that the testing and breeding of animals complied with pertinent laws, regulations, ordinances, and guidelines, and was performed with the approval of the Experimental Ethics Review Board of the Institute of Physical and Chemical Research.
The following reagents were respectively prepared. • Placebo: 60% aqueous ethanol solution • Working Example 1: 0.05% solution of palmitoyl • dipeptide-5 diaminohydroxybutyrate (3) Preparation of Skin Samples Derived from Mouse Dorsal Body Hair Skin
To collect dorsal body hair skin in the form of anagen stage VI skin 12 to 14 days following depilation, C57BL/6N mice of age 7 to 8 weeks were depilated at locations where dorsal body hair skin was intended to be collected, and were bred for 12 to 14 days. The depilated C57BL/6N mice were thereafter euthanized by cervical dislocation, following which a suitable amount of dorsal body hair skin was collected from the locations at which dorsal body hair skin was intended to be collected.
The collected skin was immersed in DMEM culture medium (hereinafter “DMEM 10”) which contained 10 mM HEPES, 10% fetal bovine serum, and 1% penicillin/streptomycin solution. The collected dorsal body hair skin was grasped with bent-nose curved tweezers and was treated by immersion for 10 seconds in a sterilizing solution. Sterilization treatment was performed by carrying out treatment with 7% povidone iodine solution two times, treatment with PBS (-) three times, and treatment with DMEM 10 two times, in this order, with fresh solutions respectively being used each time. Following sterilization treatment, these were immersed in clean DMEM 10.
Following sterilization treatment, the dorsal body hair skin was cut into pieces and formed into blocks. The transparent connective tissue which adhered to the cutaneous muscle layer of the skin was excised therefrom using curved scissors, and hair groups were cut into rectangular strips in parallel fashion with respect to the direction of the wave of the hair. At this time, these were cut into blocks such that there were 6 rows of hair follicles along the long axis, adjustment having been carried out so that there were 5 rows of hair follicles along the short axis.
The skin samples derived from dorsal body hair skin that were prepared in accordance with the foregoing were grafted onto Balb/c nu/nu mice of age 4 to 6 weeks.
More specifically, mice were anesthetized in the usual way using isoflurane gas. The dorsal area of the mice was then disinfected using 7% povidone iodine solution, following which the mice were made to assume a naturally recumbent posture. In addition, a Mani ophthalmic knife (Mani, Inc.; Japan) was used to pierce the skin at the dorsal area of the mice, the grafts which were formed extending from the epidermal layer of the skin to the subdermal layer. The skin samples derived from dorsal body hair skin were inserted into the grafts formed thereat in such fashion as to cause the hair groups to be directed toward the body surface side of the grafts. Skin sample transplanted depth was adjusted so as to cause the top portion of the hair group to be in a state such that it was exposed at the top portion of the graft. To protect the grafts, Nurseban (registered trademark) (Sunplanet Co., Ltd.; Japan) and surgical tape (3M Japan Limited; Japan) were then used as protective tape to cover the grafts at which the skin samples derived from dorsal body hair skin had been transplanted. The protective tape was removed 5 to 7 days following transplantation, and survival of the transplanted skin samples derived from dorsal body hair skin was determined by visual inspection or digital microscopy (Keyence Corporation: Japan), after which follow-up observation was carried out.
For the first hair cycle, 60% aqueous ethanol solution was applied thereto as placebo. […]

[2] = tested on: FGF-7 gene; experiment: FGF-7 gene expression in human dermal papilla cells (real-time PCR, GAPDH internal standard); type: cell-based; conditions: 24 hours, FIG. 4
Method: Testing and evaluation were carried out with maintenance and culture of human dermal papilla cells being performed in the same manner as at Exemplary Test 3, above.
As drugs for testing, drug solutions of the following respective concentrations (final concentrations) were prepared and used. • Comparative Example 1: 100 μM adenosine • Working Example 1: 1 μM palmitoyl dipeptide-5 diaminohydroxybutyrate • Working Example 2: 10 μM palmitoyl dipeptide-5 diaminohydroxybutyrate • Working Example 3: 300 μM palmitoyl dipeptide-5 diaminohydroxybutyrate
A 24-well plate was seeded with human dermal papilla cells so as to obtain 6×10^3 thereof per well. […]
Following culture, total RNA was extracted from the respective wells and was recovered, and this was reverse-transcribed into cDNA. […] The GAPDH gene was used as an internal standard, the amount of FGF-7 gene expression being calculated relative to the negative control group.
A FastGene RNA Basic Kit (Catalog No. FG-80250; Nippon Genetics Co., Ltd. (Japan)) was used to recover total RNA from cells. […] Concentration of the recovered RNA was measured using a NanoDrop Lite (Catalog No. ND-LITE; Thermo Fisher Scientific K.K.), and this was stored at −80° C. until the following cDNA creation procedure.
A FastGene scriptase II cDNA synthesis 5× Ready Mix (Catalog No. NE-LS641; Nippon Genetics Co., Ltd. (Japan)) was used to synthesize cDNA. […]

[3] = tested on: hair shafts from skin samples transplanted in Balb/c nu/nu mice; experiment: Hair-diameter-increasing activity: hair shaft diameter of zigzag hairs that completed the second cycle; type: in vivo, mouse
Method: Measurement of increase in hair diameter was carried out using hair shafts that had completed the second cycle at the foregoing Exemplary Test 1. Of the hair shafts that were collected, three zigzag hairs were used for measurement of increase in hair diameter. Three locations were selected in regions where diameter was large in the central portions thereof using a square 100 μm on a side. For each of the selected regions, five different locations were further selected, and hair shaft diameter of the zigzag hairs thereat was measured to evaluate the degree to which increase in hair diameter had occurred.

[4] = tested on: human dermal papilla cells; experiment: Dermal papilla cell growth promotion (Cell Count Reagent SF, absorbance 450 nm); type: cell-based; conditions: FIG. 3
Method: Human dermal papilla cells (Catalog No. CA602t05a; derived from person; Toyobo Co., Ltd. (Japan)) were purchased, testing and evaluation being carried out with maintenance and culture of cells being performed as described in the protocol.
As drugs for testing, drug solutions consisting of culture medium for human dermal papilla cells containing palmitoyl dipeptide-5 diaminohydroxybutyrate in the following respective concentrations (final concentrations) were prepared, and these were used. • Working Example 1: 11.54709375 μM • Working Example 2: 23.0941875 μM • Working Example 3: 46.188375 μM • Working Example 4: 92.37675 μM • Working Example 5: 184.7535 μM • Working Example 6: 369.507 μM
A 96-well plate was seeded with human dermal papilla cells so as to obtain 1×10^3 thereof per well. […] After this had been added thereto, absorbance (measurement wavelength 450 nm; reference wavelength 620 nm) of the culture supernatant was measured. Based on these values, the cell growth rates at the respective wells were calculated, at which time the cell growth rate of the control group at which nothing had been added was taken to be 100%.

[5] = 0.05% solution, second hair cycle vs placebo applied in first hair cycle
[6] = solution containing 0.05%, applied at transplanted skin samples in mice

## palmitoyl dipeptide-5 diaminohydroxybutyrate
[1]; 0.05% solution applied topically, second hair cycle, placebo (first hair cycle) 0.38 ± 0.06
  Hair shaft elongation rate (mm/day): 0.39 ± 0.06 mm/day
[1]; 0.05% solution applied topically, second hair cycle, placebo (first hair cycle) 4.9 ± 0.4, * p<0.05
  Maximum hair shaft length (mm): 5.2 ± 0.2 * mm
[1]; [5]
  Hair shaft elongation rate: Percent change relative to reference data: 100.63%
  Maximum hair shaft length: Percent change relative to reference data: 105.19%
[1]; solution containing 0.05%
  Hair growth activity (in words): exhibit hair growth activity
[1]; [6]
  Hair shaft elongation rate as compared with reference data (in words): improvement in hair shaft elongation rate
  Maximum hair shaft length as compared with reference data (in words): significant improvement
[2]; 1 μM and 10 μM (Working Examples 1 and 2)
  Amount of expression of the FGF-7 gene as compared with control group at which nothing had been added: increase in the amount of expression of the FGF-7 gene
[2]; increasing the amount added
  Amount of expression of the FGF-7 gene compared with 100 μM adenosine (Comparative Example 1): greater than that which was produced as a result of action of adenosine
[3]; hair shafts which had completed the second cycle
  Hair diameter as compared with 60% aqueous ethanol control (in words): clear increase in hair diameter
[3]; second hair cycle vs placebo applied in first hair cycle
  Hair shaft diameter: Percent increase (%): 124%
[3]; zigzag hairs, second hair cycle, 0.05% solution, placebo (first hair cycle) 18.5 ± 3.1, ** p<0.01
  Hair shaft diameter (μm): 22.9 ± 2.5 ** μm
[4]; 11.54709375 to 369.507 μM (Working Examples 1 to 6), 24, 48 or 72 hours
  Cell growth rate as compared with control group at which nothing had been added (control = 100%): increase in cell growth rate
[4]; 11.54709375 to 369.507 μM, peak at concentration of Working Example 5 (184.7535 μM)
  Concentration dependence of cell growth: induced cell growth in concentration-dependent fashion

From patent US20230355498A1, “HAIR GROWTH AGENT” (ADJUVANT HOLDINGS CO., LTD., priority 2020, published 2023)
